Source: the OPERA property sets (Mansouri et al. 2018)
Converted amounts (≈) assume the structure as drawn.

Conditions: 20 °C

Point of comparison: CC(=O)Nc1ccc(Cl)cc1C, solubility 4.9 mM (≈ 900 µg/mL). Against it:
- NC(=O)N/N=C/[C@H](O)[C@@H](O)[C@H](O)CO — 150-fold higher, 743 mM (≈ 154000 µg/mL)
- Cc1ccc(OCC(=O)O)cc1 — within 1.5-fold, 7.22 mM (≈ 1200 µg/mL)
- CN(C)c1ncnc2nccnc12 — 19-fold higher, 95.1 mM (≈ 16700 µg/mL)
- CCCCOC(=O)c1c(C(=O)O)cccc1[N+](=O)[O-] — 2.6-fold lower, 1.91 mM (≈ 510 µg/mL)

Same assay, conditions: 21 °C

Point of comparison: O=C(O)CNC(=O)c1ccco1, solubility 187 mM (≈ 31700 µg/mL). Against it:
- Cc1cc(O)c(C(=O)O)cc1Cl — 250-fold lower, 0.75 mM (≈ 140 µg/mL)

Same assay, conditions: 22 °C

Point of comparison: O=C1CCCCCCCCN1, solubility 84.4 mM (≈ 13100 µg/mL). Against it:
- O=C1CCCCCCCN1 — 51-fold higher, 4290 mM (≈ 606000 µg/mL)
- Cc1ccc(N)cc1C — 2.7-fold lower, 31.4 mM (≈ 3800 µg/mL)

Same assay, conditions: 23 °C

Point of comparison: CCCc1nc(N)c(CC)c(CCC)n1, solubility 3.07 mM (≈ 636 µg/mL). Against it:
- NC(=O)N/N=C/[C@H](O)[C@@H](O)[C@@H](O)[C@H](O)CO — 72-fold higher, 222 mM (≈ 52700 µg/mL)

Same assay, conditions: 25 °C

Point of comparison: CCC1OC(=O)c2cc([N+](=O)[O-])ccc21 (stereo unspecified), solubility 2.82 mM (≈ 584 µg/mL). Against it:
- C[C@H](O)C(F)(F)F — 720-fold higher, 2040 mM (≈ 233000 µg/mL)
- OCc1ccccc1CO — 400-fold higher, 1140 mM (≈ 158000 µg/mL)
- O=C1CC=CS1 — 210-fold higher, 599 mM (≈ 60000 µg/mL)
- CC(CCC(=O)O)NC(=O)c1ccccc1 (stereo unspecified) — 7.2-fold higher, 20.3 mM (≈ 4500 µg/mL)
- CCCCCCOC(=O)c1cccnc1 — within 1.5-fold, 2.22 mM (≈ 460 µg/mL)
- O=C(O)CCC(=O)c1ccc2ccccc2c1 — 20-fold lower, 0.14 mM (≈ 32 µg/mL)
- CC(=O)Oc1ccccc1/C=C/C(=O)O — 4-fold lower, 0.698 mM (≈ 144 µg/mL)
- CC(=O)N[C@@H](CC(C)C)C(=O)O — 17-fold higher, 46.8 mM (≈ 8100 µg/mL)
- CCOP(=O)(OCC)OCC(C)C — 24-fold higher, 66.6 mM (≈ 14000 µg/mL)
- CC(=O)N[C@@H](C(=O)O)C(C)C (racemic) — 130-fold higher, 354 mM (≈ 56400 µg/mL)
- CCN[C@@H](C)C(=O)O (racemic) — 1600-fold higher, 4490 mM (≈ 526000 µg/mL)
- O=C1OCc2ccc(I)cc21 — 4.6-fold lower, 0.615 mM (≈ 160 µg/mL)
- CCCCCCCCOCCO — 2.7-fold higher, 7.5 mM (≈ 1310 µg/mL)
- O=C1CNC(=S)N1c1ccccc1 — 4.9-fold lower, 0.572 mM (≈ 110 µg/mL)
- O=C(NCCO)c1cc(O)ccc1O — 100-fold higher, 286 mM (≈ 56400 µg/mL)
- CN1c2ccccc2C(O)(c2ccccc2)c2ccccc21 — 23-fold lower, 0.125 mM (≈ 35.9 µg/mL)
- CC1(C)OC(=O)c2cc([N+](=O)[O-])ccc21 — 3.2-fold lower, 0.888 mM (≈ 184 µg/mL)
- COC(=O)OC(C)C(=O)OC (stereo unspecified) — 89-fold higher, 251 mM (≈ 40700 µg/mL)
- Cc1c(Cl)c(O)c(Cl)c(Cl)c1Cl — 110-fold lower, 0.025 mM (≈ 6.15 µg/mL)
- CC(C)CC(=O)Oc1ccc([N+](=O)[O-])cc1 — 70-fold lower, 0.0403 mM (≈ 9 µg/mL)
- CCCCOC(=O)CCOCC — 8.2-fold higher, 23 mM (≈ 4000 µg/mL)
- CCCCOP(=O)(O)OCCCC — 29-fold higher, 81.8 mM (≈ 17200 µg/mL)
- CCCCCCCCCOC(=O)c1cccnc1 — 3.5-fold lower, 0.802 mM (≈ 200 µg/mL)
- CCN(C(N)=O)c1ccccc1C — 220-fold higher, 617 mM (≈ 110000 µg/mL)
- O=C(O)c1ccc2ncccc2c1 — 320-fold higher, 900 mM (≈ 156000 µg/mL)
- CCC(=NO)C(CC)=NO — within 1.5-fold, 2.8 mM (≈ 404 µg/mL)
- NC(=O)NCC(=O)NCC(=O)O — 45-fold higher, 126 mM (≈ 22100 µg/mL)
- CCC1(c2ccccc2)NC(=O)NC1=O (stereo unspecified) — 2.4-fold higher, 6.76 mM (≈ 1380 µg/mL)
- CCC1(CC)OC(=O)c2ccccc21 — 2.1-fold lower, 1.37 mM (≈ 260 µg/mL)
- NS(=O)(=O)c1cccc(S(N)(=O)=O)c1 — 2.4-fold higher, 6.77 mM (≈ 1600 µg/mL)
- CC(=O)Nc1ccc(C)cc1 — 2.9-fold higher, 8.04 mM (≈ 1200 µg/mL)
- CC(Cl)C(C)(C)O (stereo unspecified) — 180-fold higher, 510 mM (≈ 62500 µg/mL)
- CCOc1nc(OCC)nc(OCC)n1 — 12-fold higher, 32.8 mM (≈ 7000 µg/mL)
- O=C(O)COCC(=O)O — 1100-fold higher, 3110 mM (≈ 417000 µg/mL)
- CCCCOCCC(=O)OC — 18-fold higher, 51.2 mM (≈ 8200 µg/mL)
- CCC(C)CC(O)CC (stereo unspecified) — 4.9-fold higher, 13.8 mM (≈ 1800 µg/mL)
- CCCCOC(=O)NS(N)(=O)=O — 33-fold higher, 91.7 mM (≈ 18000 µg/mL)
- Cc1ccc(S(=O)(=O)N(Cl)Cl)cc1 — 8.2-fold lower, 0.342 mM (≈ 82.1 µg/mL)
- CCCCOC(=O)C(C)OC(C)=O (stereo unspecified) — 62-fold higher, 176 mM (≈ 33200 µg/mL)
- CCc1cc(C)cc(O)c1 — 6-fold higher, 17 mM (≈ 2320 µg/mL)
- O=C(O)c1ccc([N+](=O)[O-])c2cccnc12 — 4.1-fold lower, 0.683 mM (≈ 149 µg/mL)
- c1cn[nH]c1 — 100-fold higher, 285 mM (≈ 19400 µg/mL)
- Cn1cc([N+](=O)[O-])c(=O)[nH]c1=O — 3.6-fold higher, 10.1 mM (≈ 1720 µg/mL)
- CCCC(C)C(O)CC (stereo unspecified) — 3.9-fold higher, 10.9 mM (≈ 1420 µg/mL)
- COCCCl — 300-fold higher, 846 mM (≈ 80000 µg/mL)
- N#CI — 83-fold higher, 233 mM (≈ 35600 µg/mL)
- Cn1cnc2c1c(=O)n(CC(=O)O)c(=O)n2C — 15-fold higher, 42 mM (≈ 10000 µg/mL)
- CSc1ncccn1 — 140-fold higher, 396 mM (≈ 50000 µg/mL)
- CCCC[C@H](O)C(C)C — 5.5-fold higher, 15.4 mM (≈ 2010 µg/mL)
- NNC(=O)CC(=O)NN — 270-fold higher, 757 mM (≈ 100000 µg/mL)
- O=C(NNC(=O)c1ccccc1)c1ccccc1 — 9.1-fold higher, 25.8 mM (≈ 6200 µg/mL)
- Cc1nnc(N)nc1C — 29-fold higher, 80.6 mM (≈ 10000 µg/mL)
- CCCCCOP(=O)(OCC)OCC — 12-fold higher, 33.4 mM (≈ 7500 µg/mL)
- O=[N+]([O-])c1cc([N+](=O)[O-])c(-c2ccccc2)cc1O — 82-fold lower, 0.0346 mM (≈ 9 µg/mL)
- NC(=O)Nc1ccc(Br)cc1 — 8.2-fold higher, 23.2 mM (≈ 5000 µg/mL)
- CC1OC(=O)c2cc([N+](=O)[O-])ccc21 (stereo unspecified) — within 1.5-fold, 2.42 mM (≈ 468 µg/mL)
- COP(=S)(OC)SSP(=S)(OC)OC — 70-fold lower, 0.04 mM (≈ 12.6 µg/mL)
- CCCCCCCCCCCCCCNC(=O)C(C)O (stereo unspecified) — 27-fold lower, 0.105 mM (≈ 30 µg/mL)
- O=C(Nc1ccccn1)c1cccnc1 — 2.7-fold lower, 1.05 mM (≈ 210 µg/mL)
- CCCCCCP(=O)(OCC)OCC — within 1.5-fold, 2.7 mM (≈ 600 µg/mL)
- CCCOC(=O)c1cccnc1 — 20-fold higher, 57.5 mM (≈ 9500 µg/mL)
- CCCC(C)CC(C)O (stereo unspecified) — 4.7-fold higher, 13.2 mM (≈ 1730 µg/mL)

Same assay, conditions: 26 °C

Point of comparison: O=C(S)CCCCCCCCC(=O)S, solubility 0.853 mM (≈ 200 µg/mL). Against it:
- O=C(S)CCCCC(=O)S — 22-fold higher, 18.5 mM (≈ 3300 µg/mL)

Same assay, conditions: 30 °C

Point of comparison: CCOC(=O)CO[N+](=O)[O-], solubility 19.4 mM (≈ 2900 µg/mL). Against it:
- CCCOc1ccc(NC(C)=O)cc1 — 22-fold lower, 0.88 mM (≈ 170 µg/mL)
- CCn1c(=O)c2c(ncn2C)n(C)c1=O — 9.8-fold higher, 191 mM (≈ 39800 µg/mL)
- CN(C)C(=O)c1ccccc1C(=O)N(C)C — 170-fold higher, 3220 mM (≈ 710000 µg/mL)
- CCCCCCCCOC(=O)c1ccc(O)cc1 — 320-fold lower, 0.0599 mM (≈ 15 µg/mL)
- COC(=O)CNC(=O)c1ccccc1 — 4.5-fold higher, 88 mM (≈ 17000 µg/mL)
- COC(=O)c1ccc(O)c(Br)c1 — 28-fold lower, 0.684 mM (≈ 158 µg/mL)
- C[C@H](Nc1ccccc1Cl)C(=O)O (racemic) — 4.1-fold lower, 4.71 mM (≈ 940 µg/mL)
- O=C(O)Cc1c[nH]c(=O)[nH]c1=O — within 1.5-fold, 23.5 mM (≈ 4000 µg/mL)
